According to article PMC10687260, “1,3-Diphenylureido hydroxamate as a promising scaffold for generation of potent antimalarial histone deacetylase inhibitors” (Scientific Reports, 2023):

Assays:
[1] = molecular target: T1, HDAC8 (Homo sapiens, UniProt Q9BY41); test: In vitro HDAC enzymatic assay, HDAC8; assay type: biochemical; details: mean ± SD
T1 construct: made in house
T1 sequence (Q9BY41 1-377): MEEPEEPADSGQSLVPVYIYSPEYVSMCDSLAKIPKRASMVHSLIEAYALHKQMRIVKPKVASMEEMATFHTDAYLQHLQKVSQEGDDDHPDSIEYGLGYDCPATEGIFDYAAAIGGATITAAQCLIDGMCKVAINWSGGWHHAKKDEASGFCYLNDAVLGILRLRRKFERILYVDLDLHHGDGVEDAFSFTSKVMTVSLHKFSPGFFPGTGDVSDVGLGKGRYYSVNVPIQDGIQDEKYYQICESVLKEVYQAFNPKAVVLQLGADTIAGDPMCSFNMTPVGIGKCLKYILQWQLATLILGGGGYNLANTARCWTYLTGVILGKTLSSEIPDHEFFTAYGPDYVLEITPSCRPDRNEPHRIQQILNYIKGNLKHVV
Procedure: (§1) In vitro HDAC enzymatic assays. Recombinant human HDAC1 and HDAC6 were purchased from ENZO Life Sciences AG (Lausen, CH) whereas HDAC8 was produced as described before. In vitro testing of the inhibitors in an enzymatic assay was carried out as described in previous publications[32],[33]. For HDAC1 a fluorogenic peptide derived from p53 (Ac-RHKK(Acetyl)-AMC) was used. For HDAC6, the substrate (Abz-SRGGK(thio-TFA)FFRR-NH2) was used as described before.

[2] = Stability in human hepatic microsomes; assay type: in vitro ADME; details: for half-life at 1 µM: 1 mg/mL hepatic microsomes, 1 µM compound, read-out: Half-life t1/2 Human; for microsomal CLint at 1 µM: read-out: Intrinsic clearance Clint Human
Text: DMPK evaluation. […].

[3] = molecular target: T2, human HDAC6 (Homo sapiens, UniProt Q9UBN7); test: In vitro HDAC enzymatic assay, HDAC6; assay type: biochemical; details: for IC50: mean ± SD; for HDAC1/6 SI: ratio HsHDAC1 IC50/HsHDAC6 IC50
T2 construct: purchased ENZO Life Sciences AG (Lausen, CH)
T2 sequence (Q9UBN7 1-1215): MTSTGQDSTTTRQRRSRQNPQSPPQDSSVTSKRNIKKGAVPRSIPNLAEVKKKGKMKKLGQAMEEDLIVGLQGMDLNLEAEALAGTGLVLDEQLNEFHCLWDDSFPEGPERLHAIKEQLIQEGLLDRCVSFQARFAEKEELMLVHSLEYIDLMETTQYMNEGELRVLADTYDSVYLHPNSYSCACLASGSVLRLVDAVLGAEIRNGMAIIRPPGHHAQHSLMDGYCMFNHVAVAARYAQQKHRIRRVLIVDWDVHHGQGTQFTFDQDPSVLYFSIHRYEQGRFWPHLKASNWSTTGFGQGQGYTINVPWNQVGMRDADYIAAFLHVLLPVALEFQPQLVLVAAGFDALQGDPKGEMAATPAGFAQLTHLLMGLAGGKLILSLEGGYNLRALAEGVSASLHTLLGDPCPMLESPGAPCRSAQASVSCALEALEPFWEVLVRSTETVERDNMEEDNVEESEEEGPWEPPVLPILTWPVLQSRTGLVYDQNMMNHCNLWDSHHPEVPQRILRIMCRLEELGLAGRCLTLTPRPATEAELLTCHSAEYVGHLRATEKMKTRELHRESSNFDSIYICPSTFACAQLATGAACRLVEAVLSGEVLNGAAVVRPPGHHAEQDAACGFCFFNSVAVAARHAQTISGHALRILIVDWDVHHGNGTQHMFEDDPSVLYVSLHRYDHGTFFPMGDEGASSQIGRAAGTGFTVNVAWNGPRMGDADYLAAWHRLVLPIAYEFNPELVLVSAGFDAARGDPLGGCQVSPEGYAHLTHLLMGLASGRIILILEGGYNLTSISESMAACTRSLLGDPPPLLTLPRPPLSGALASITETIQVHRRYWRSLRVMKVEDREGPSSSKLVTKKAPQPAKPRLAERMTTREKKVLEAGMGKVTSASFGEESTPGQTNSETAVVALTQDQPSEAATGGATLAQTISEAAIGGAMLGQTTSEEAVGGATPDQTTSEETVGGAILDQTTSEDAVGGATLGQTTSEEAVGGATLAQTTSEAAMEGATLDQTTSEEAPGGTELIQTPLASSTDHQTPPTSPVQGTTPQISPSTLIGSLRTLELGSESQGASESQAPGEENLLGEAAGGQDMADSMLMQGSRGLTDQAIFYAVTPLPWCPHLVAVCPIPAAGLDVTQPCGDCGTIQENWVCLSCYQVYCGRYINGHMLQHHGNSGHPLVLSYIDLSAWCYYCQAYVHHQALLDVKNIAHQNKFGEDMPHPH
Procedure: as §1

[4] = system: HepG2 cells; test: Cytotoxicity in human HepG2 cells (WST-1); assay type: cell-based; details: Homo sapiens, HepG2; 48 h, WST-1; read-out: IC50 HepG2
Method in brief: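 HepG2 cells (10^4/well, seeded overnight) were exposed to two-fold serial compound dilutions in fresh medium, then given WST-1 for 4 h. Formazan absorbance at 450 nm, with 630 nm background, was scaled 0–100% against untreated and DMSO controls.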

[5] = molecular target: T3, human HDAC1 (Homo sapiens, UniProt Q13547); test: In vitro HDAC enzymatic assay, HDAC1; assay type: biochemical; details: mean ± SD
T3 construct: purchased ENZO Life Sciences AG (Lausen, CH)
Procedure: as §1

[6] = molecular target: T4, CYP450 2C9 (Homo sapiens, UniProt P11712); test: CYP450 inhibition in human liver microsomes, 2C9; assay type: in vitro ADME; details: 10 µM
T4 construct: 10 μM compound was incubated with human liver microsomes and selective marker substrates; from tissue; host or cells: human liver microsomes
T4 sequence (P11712 whole entry): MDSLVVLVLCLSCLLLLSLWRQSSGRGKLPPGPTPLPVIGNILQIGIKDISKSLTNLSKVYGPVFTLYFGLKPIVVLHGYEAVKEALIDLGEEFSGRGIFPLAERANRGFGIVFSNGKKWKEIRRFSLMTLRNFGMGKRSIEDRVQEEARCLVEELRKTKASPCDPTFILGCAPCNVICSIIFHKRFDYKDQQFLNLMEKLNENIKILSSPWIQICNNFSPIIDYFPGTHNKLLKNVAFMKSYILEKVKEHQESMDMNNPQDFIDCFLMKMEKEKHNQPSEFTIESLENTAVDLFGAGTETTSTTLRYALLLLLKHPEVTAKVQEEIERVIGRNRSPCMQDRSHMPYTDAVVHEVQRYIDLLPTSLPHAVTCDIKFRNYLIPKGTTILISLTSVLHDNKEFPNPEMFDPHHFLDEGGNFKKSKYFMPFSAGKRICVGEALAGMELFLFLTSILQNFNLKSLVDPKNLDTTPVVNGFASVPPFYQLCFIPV

T3 sequence (Q13547 whole entry): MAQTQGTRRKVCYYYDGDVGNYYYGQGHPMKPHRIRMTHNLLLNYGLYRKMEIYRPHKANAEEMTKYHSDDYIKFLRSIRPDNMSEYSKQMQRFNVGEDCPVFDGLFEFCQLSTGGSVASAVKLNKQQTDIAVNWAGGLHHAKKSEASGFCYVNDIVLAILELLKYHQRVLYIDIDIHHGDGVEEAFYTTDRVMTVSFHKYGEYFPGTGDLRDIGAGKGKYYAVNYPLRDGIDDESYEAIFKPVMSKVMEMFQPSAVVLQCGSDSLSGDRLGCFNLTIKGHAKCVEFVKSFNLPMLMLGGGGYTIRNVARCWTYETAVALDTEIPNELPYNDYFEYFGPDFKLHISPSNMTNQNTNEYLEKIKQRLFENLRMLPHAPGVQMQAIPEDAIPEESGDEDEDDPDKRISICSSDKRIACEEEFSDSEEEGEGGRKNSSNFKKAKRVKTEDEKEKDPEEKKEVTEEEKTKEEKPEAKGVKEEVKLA

SMILES | IC50 [1] [µM] | half-life at 1 µM [2] [h] | microsomal CLint at 1 µM [2] [µL/min/mg] | IC50 [3] [µM] | HDAC1/6 SI [3] | IC50 [4] [µM] | IC50 [5] [µM] | CYP450% inhibition @ 10 µM 2C9 [6]
O=C(Nc1ccc(C(=O)NO)cc1)Nc1ccc([N+](=O)[O-])cc1 [Compound 8d, N-hydroxy-4-(3-(4-nitrophenyl)ureido)benzamide] | 0.0681 ± 0.0068 | > 2 | < 6 | 0.0134 ± 0.0005 | 279 | 54 | 3.74 ± 0.232 | * (Inhibition < 10%)
COc1ccc(NC(=O)Nc2ccc(CCC(=O)NO)cc2)cc1 [Compound 7c, N-hydroxy-3-(4-(3-(4-methoxyphenyl)ureido)phenyl)propanamide] | 0.362 ± 0.0227 | > 2 | < 6 | 0.151 ± 0.0111 | 23 | > 50 | 3.56 ± 0.185 | * (Inhibition < 10%)
O=C(Nc1ccc(Cl)cc1)Nc1ccc(C(=O)NO)cc1 [Compound 8b, 4-(3-(4-chlorophenyl)ureido)-N-hydroxybenzamide] | 0.0851 ± 0.0096 | 1.1 | 10 | 0.015 ± 0.0004 | 349 | > 200 | 5.24 ± 0.476 | * (Inhibition < 10%)
COc1ccc(NC(=O)Nc2ccc(/C=C/C(=O)NO)cc2)cc1 [Compound 6c, (E)-N-hydroxi-3-(4-(3-(4-methoxyphenyl)ureido)phenyl)acrylamide] | 0.0637 ± 0.0042 | 0.66 | 17 | 0.0077 ± 0.0009 | 206 | 13.3 | 1.58 ± 0.0622 | 18%
COc1ccc(NC(=O)Nc2ccc(C(=O)NO)cc2)cc1 [Compound 8c, N-hydroxy-4-(3–4(-methoxyphenyl)ureido)benzamide] | 0.136 ± 0.0082 | 1.65 | 7 | 0.0159 ± 0.0004 |  | > 200 | 6.18 ± 0.231 | * (Inhibition < 10%)
O=C(Nc1ccccc1)Nc1ccc(C(=O)NO)cc1 [Compound 8a, N-hydroxy-4-(3-phenylureido)bezamide] | 0.0935 ± 0.0053 | > 2 | < 6 | 0.0085 ± 0.0008 | 627 | 56 | 5.33 ± 0.366 | * (Inhibition < 10%)
